Consider one molecule from patent US12201638B2, “Pharmaceutical compositions comprising (2S)-n-{(1S)-1-cyano-2-[4-(3-methyl-2-oxo-2,3-dihydro-1,3-benzoxazol-5-yl)phenyl]ethyl}-1,4-oxazepane-2-carboxamide” (ASTRAZENECA AB, priority 2018, dated 2025).

The data set in a line: Excipient compatibility: accelerated stability of Compound A tablets (degradation by chromatography). The format is physicochemical. The settings on record: stored at 50/75 for 45 days. As for the experimental part:
Excipient compatibility experiments were designed as linear D-optimal designs with qualitative factors of two or more levels. The formulations used in these experiments can be directly compressed into tablets. For dry processing, three factors were evaluated, namely binary filler combination, choice of disintegrant and choice of lubricant. In the experimental design shown below (see Table 3) the effect of an HPMC-based film coat as well as the addition of colloidal silicon dioxide was evaluated using repeat corners.
Pure drug substance was included as a reference in all conditions.
This is shown in FIG. 2, where tablets stored at 50/75 for 45 days are compared with neat drug substance stored in identical conditions as well as a freshly prepared standard solution from the same drug substance batch. The chromatograms are stacked in order of degradation (and slightly shifted for clarity).
However, the general trends from the other conditions could still be seen. […] Based on this, 70/XX data was omitted from the shelf life prediction model.
Five different peaks were monitored at five different conditions. However, as discussed above, the 70/XX condition was excluded based on a probable conversion to Form B. Overall, Compound A in tablets containing glyceryl behenate appears to degrade to a slightly lesser degree than magnesium stearate.

On to `Cn1c(=O)oc2ccc(-c3ccc(C[C@@H](C#N)NC(=O)[C@@H]4CNCCCO4)cc3)cc21` [Compound A, (2S)-N-{(1S)-1-cyano-2-[4-(3-methyl-2-oxo-2,3-dihydro-1,3-benzoxazol-5-yl)phenyl]ethyl}-1,4-oxazepane-2-carboxamide], for which the “Degradation (overlaid chromatograms, FIG. 2)” value is on record as “almost no difference”.
